Results on 1 compound are retold here after paper PMC4435632, “Phase 1 study of ixazomib, an investigational proteasome inhibitor, in advanced non-hematologic malignancies” (Investigational New Drugs, 2015).

A short description of the data set: Plasma ixazomib pharmacokinetics (LC/MS/MS, noncompartmental). In kind it is in vivo. On the procedure: Blood samples for determination of plasma ixazomib concentrations for pharmacokinetic analysis (3 mL) and for measurement of whole blood 20S proteasome activity (1 mL) were collected at the following timepoints for all patients in the dose-escalation cohort and for the first 12 patients completing cycle 1 while receiving protocol-specified treatment at the MTD: pre-dose (within 1 h) on days 1, 4, 8, and 11 of cycle 1, and on day 1 of cycle 2; and on days 1 and 11, cycle 1, at 5, 15 and 30 min, and 1, 2, 4, 9, 24, 48, 96 (day 11 only), 120 (day 11 only), and 168 (day 11 only) h post-dose. A limited sampling schedule was employed for the remaining patients in the MTD expansion cohorts.
Plasma concentrations of ixazomib were measured using a good laboratory practice-validated liquid chromatography/tandem mass spectrometry (LC/MS/MS) assay with a lower limit of quantification of 0.5 ng/mL. Whole blood 20S proteasome activity (expressed as percent proteasome inhibition relative to baseline) was measured using an established fluorogenic assay, which evaluates the chymotrypsin-like activity of the β5 subunit of the 20S proteasome, the primary target of ixazomib. […]
All efficacy and safety data were summarized using descriptive statistics. Pharmacokinetic and pharmacodynamic parameters were calculated using noncompartmental methods (WinNonlin software v5.3).

As usually defined, the half-life is the time needed for the level to fall by half in the phase considered. A word on the AUC(0-t): it is the area under the concentration-time curve up to a stated or last time point. A higher AUC(0-t) goes with high exposure. As to `CC(C)C[C@H](NC(=O)CNC(=O)c1cc(Cl)ccc1Cl)B(O)O` [ixazomib], the “C0 (extrapolated immediate post-bolus plasma concentration)” value (day 1, 2.34 mg/m^2 IV, n = 1, individual value) was 901 ng/mL. The “t½ (terminal disposition phase half-life)” value (day 11, 1.33 mg/m^2 IV, n = 3, geometric mean (% CV)) is 145 (19) h. Under “human, in vivo, 8 h”, the “Decrease of mean plasma concentrations” value is recorded as “approximately 90%”. For the same compound, the Accumulation of ixazomib result (human, in vivo, 11 day of cycle 1) is “approximately 3 fold”. The half-life reads like this: (human, in vivo, iv) 91.2 to 173 h; (human, in vivo, iv, 1 mg/m2) 172 h; (human, in vivo, iv, 1.76 mg/m2) 110 h; (human, in vivo, iv, 2.34 mg/m2) 90.8 h. The C0 is, setting by setting: (human, in vivo, iv, 0.125 mg/m2, C0 (extrapolated immediate post-bolus plasma concentration)) 27.1 ng/mL; (human, in vivo, iv, 0.25 mg/m2, C0 (extrapolated immediate post-bolus plasma concentration)) 69 ng/mL; (human, in vivo, iv, 1 mg/m2, C0 (extrapolated immediate post-bolus plasma concentration)) 273 ng/mL; (human, in vivo, iv, 1.33 mg/m2, C0 (extrapolated immediate post-bolus plasma concentration)) 390 ng/mL; (human, in vivo, iv, 1.76 mg/m2, C0 (extrapolated immediate post-bolus plasma concentration)) 556 ng/mL; (human, in vivo, iv, 2.34 mg/m2, C0 (extrapolated immediate post-bolus plasma concentration)) 869 ng/mL. For the setting “human, in vivo, iv, 0.25 mg/m2, AUC0–72”, this compound came in with an AUC(0-t) of 60.9 ng·h/mL. The “Plasma exposure versus dose” value (in vivo) was “appeared to increase proportionally with increasing ixazomib dose”.
